Measurements: patent publication US20200369728A1, “PEPTIDOMIMETIC MACROCYCLES AND USES THEREOF” (Aileron Therapeutics, Inc., priority 2015, published 2020)
Values joined by “and” are separate entries in the source; they are usually repeats but may differ in a detail not shown here. Equal entries are not always repeated. Bridge positions count the residues as written; N and C are the ends. Square brackets hold non-standard residues; d marks the D form. Ends that are not written are not given here. Peptide text beside a SMILES is read from it. Phe(4-COOH) = N[C@@H](Cc1ccc(C(=O)O)cc1)C(=O)O; R8 = C=CCCCCCC[C@@](C)(N)C(=O)O; Cba = N[C@@H](CC1CCC1)C(=O)O; S5 = C=CCCC[C@](C)(N)C(=O)O

Experiments:
[1] = tested on: DOHH-2; assay: WST-1 / MTT cell viability, DOHH-2; type: cell-based, human; settings: for IC50: Homo sapiens, DOHH-2, 72 h
Procedure: Initially, various DOHH-2 cell numbers were plated and evaluated 3-7 days later to determine the optimal number of cells to be plated and treatment duration.
(§1) A drug combination index plot was used to assess the synergistic, additive, or antagonistic properties of each combination treatment. […] Combination index (CI) values were calculated using the CompuSyn software. The data were expressed as log(CI).
The anticancer activity of the combination treatment was assessed based on the order of addition of the drugs.

[2] = MCF-7 breast cancer xenograft study, body weight and deaths; type: in vivo, mice; settings: for mice died during treatment: 10 mice per group
Source text: A negative control stapled peptide.

[3] = tested on: MV4-11; assay: WST-1 / MTT cell viability, MV4-11; settings: MV4-11, sequential treatment, 72 hrs
Procedure: Initially, various MV4-11 cell numbers were plated and evaluated 3-7 days later to determine the optimal number of cells to be plated and treatment duration.
Cells were evaluated for viability by WST-1 assay or MTT assay 3-7 days after beginning treatment.
as §1

[4] = Circular dichroism (CD) analysis of alpha-helicity; type: physicochemical
[5] = tested on: Caspase 3; assay: Caspase 3 detection assay in SJSA1 cells; type: cell-based; settings: SJSA1, 48 h, Caspase 3 activation over DMSO-treated cells
[6] = tested on: SJSA-1 cells; assay: Cell lysis by peptidomimetic macrocycles (LDH release); type: cell-based; settings: SJSA-1, 1 h
Method in brief: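 SJSA-1 cells plated the day before, switched to RPMI with 1% FBS, then exposed 1 h at 37 °C to macrocycle at final 50 μM to 6.25 μM in 0.5% DMSO. LDH released into the supernatant was measured by kit. Controls: 0.5% DMSO (non-lytic), 10 μM melittin and 1% Triton X-100 (lytic).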

[7] = tested on: RKO; assay: Cell viability assay (MTT), RKO; settings: read-out: RKO EC50 (72 h)
[8] = tested on: SJSA-1; assay: Cell viability assay (MTT), SJSA-1; settings: read-out: SJSA-1 EC50 (72 h); 72 h, MTT
[9] = tested on: MCF-7; assay: WST-1 / MTT cell proliferation assay, MCF-7 (single agents and combinations); type: cell-based, human; settings: for effect on MCF-7 cell proliferation: single agent, 5 days; for IC50: Homo sapiens
Procedure: All media were supplemented with 10% (v/v) fetal calf serum, 100 units penicillin and 100 μg/ml streptomycin at 37° C. and 5% CO2. Prior to dosing, MCF-7 cells were switched to serum free medium and grown at 37° C. overnight.
One day prior to assaying, cells were trypsinized, counted and seeded at pre-determined densities in 96-well plates as follows: MCF-7, 5000 cells/well/200 μl; MOLT-3, 30,000 cells/well/200 μl. […] The WST-1 variant of the MTT assay was used to measure cell viability according to the manufacturer's protocol. WST-1 is a cell-impermeable, sulfonated tetrazolium salt that can be used to examine cell viability without killing the cells.
Combination index (CI) values were calculated using the CompuSyn software. The data were expressed as log(CI).
Cells were evaluated for viability by WST-1 assay or MTT assay 3-7 days after beginning the simultaneous treatments (FIGS. 25, 30 and 31).
Cells were evaluated for viability by WST-1 assay or MTT assay 3-7 days or 120 hrs after beginning treatment (FIGS. 24A and 35). […] Cells were evaluated for viability by WST-1 assay or MTT assay 3-7 days after beginning the simultaneous treatments (FIGS. 36 and 37).

[10] = molecular target: MDM2 (In-house, 41 kD) (UniProt Q00987); assay: competitive fluorescence polarization, displacement of FAM-labeled linear peptide from MDM2; grade decoded by the scale of Table 4
[11] = molecular target: T1, MDMX (In-house, 40 kD) (UniProt O15151); assay: competitive fluorescence polarization, displacement of FAM-labeled linear peptide from MDMX; grade decoded by the scale of Table 4
T1 sequence (looked up): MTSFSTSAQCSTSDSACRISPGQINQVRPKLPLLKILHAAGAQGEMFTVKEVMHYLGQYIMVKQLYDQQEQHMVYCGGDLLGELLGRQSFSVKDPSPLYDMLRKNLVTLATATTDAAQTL

[12] = DOHH-2, sequential treatment, 72 hrs

Chain of MDM2 (In-house, 41 kD) (Q00987 1-125 limits assumed): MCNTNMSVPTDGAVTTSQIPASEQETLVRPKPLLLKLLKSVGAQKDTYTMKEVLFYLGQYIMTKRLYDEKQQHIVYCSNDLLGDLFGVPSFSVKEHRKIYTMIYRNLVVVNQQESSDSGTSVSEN

O=P1(N(CCCl)CCCl)NCCCO1 (stereo not shown) [CTX, cyclophosphamide, reference compound]
order of addition: effect on cell growth, AP1 and CTX [1, 12]: suppressed DOHH-2 cell growth with or without AP1
IC50 ([1]; CTX + 0.07 μM AP1, DOHH-2, 72 hours): 411 µM
IC50 ([1]; CTX + 0.2 μM AP1, DOHH-2, 72 hours): 172 µM
IC50 ([1]; CTX + 0.6 μM AP1, DOHH-2, 72 hours): 258 µM
IC50 ([1]; CTX alone): 1980 µM

CC[C@H](C)[C@H](NC(=O)[C@H](C)NC(=O)[C@H](C)NC(=O)[C@]1(C)CCCC=CCCCCCC[C@@](C)(NC(=O)[C@H](Cc2ccccc2)NC(=O)[C@@H](NC(=O)[C@H](CC(C)C)NC(C)=O)[C@@H](C)O)C(=O)N[C@@H](CCC(=O)O)C(=O)N[C@@H](Cc2ccc(C(=O)O)cc2)C(=O)N[C@@H](Cc2c[nH]c3ccccc23)C(=O)N[C@@H](C)C(=O)N[C@@H](CCC(N)=O)C(=O)N[C@@H](CC2CCC2)C(=O)N1)C(=O)N[C@H](C)C(N)=O [SP249] (Ac-LTF[R8]E[Phe(4-COOH)]WAQ[Cba][S5]AAI[dA]-NH2; staple 4-11)
mice died during treatment ([2]; […] three times per week iv): 4

CC[C@]1(O)C[C@H]2CN(CCc3c([nH]c4ccccc34)[C@@](C(=O)OC)(c3cc4c(cc3OC)N(C=O)[C@H]3[C@@](O)(C(=O)OC)[C@H](OC(C)=O)[C@]5(CC)C=CCN6CC[C@]43[C@@H]65)C2)C1 [VCR, vincristine, reference compound]
order of addition: effect on cell growth, AP1 and VCR [1, 12]: suppressed DOHH-2 cell growth with or without AP1

Nc1ncn([C@@H]2O[C@H](CO)[C@@H](O)[C@H]2O)c(=O)n1 [azacitidine, reference compound]
order of addition: effect on cell growth, AP1 and azacitidine [3]: suppressed MV4-11 cell growth with or without AP1

CC[C@H](C)[C@H](NC(=O)[C@H](C)NC(=O)[C@H](C)NC(=O)[C@]1(C)CCC/C=C/CCCCCC[C@@](C)(NC(=O)[C@H](Cc2ccccc2)NC(=O)[C@@H](NC(=O)[C@H](CC(C)C)NC(C)=O)[C@@H](C)O)C(=O)N[C@@H](C)C(=O)N[C@@H](Cc2ccc(O)cc2)C(=O)N[C@@H](Cc2c[nH]c3ccccc23)C(=O)N[C@@H](C)C(=O)N[C@@H](CCC(N)=O)C(=O)N[C@@H](CC(C)C)C(=O)N1)C(=O)N[C@H](C)C(N)=O [compound 71]
% Helix 50% TFE compared to 50% TFE parent (CD) ([4]; 50% TFE): 123.7%
Molar Ellipticity TFE − Molar Ellipticity Benign ([4]; 222 nm): −17835.9 deg cm^2 dmol^−1
Molar Ellipticity 50% TFE (222 in 50% TFE) ([4]; 222 nm, CD buffer with 50% TFE, 0.05 mg/ml, 4° C.): −17957 deg cm^2 dmol^−1
Molar Ellipticity Benign (222 in 0% TFE) ([4]; 222 nm, benign CD buffer (20 mM phosphoric acid, pH 2), 0.05 mg/ml, 4° C.): −121.2 deg cm^2 dmol^−1
% Helix benign compared to 50% TFE parent (CD) ([4]; benign buffer): 0.8%
caspase 0.3 μM ([5]; 0.3 μM): 0.95
caspase 1 μM ([5]; 1 μM): 1.02
caspase 3 μM ([5]; 3 μM): 3.68
caspase 10 μM ([5]; 10 μM): 14.72
caspase 30 μM ([5]; 30 μM): 23.52
6.25 μM % Lysed cells (1 h LDH) ([6]; 6.25 μM): 0%
25 μM % Lysed cells (1 h LDH) ([6]; 25 μM): 0%
50 μM % Lysed cells (1 h LDH) ([6]; 50 μM): 0%
EC50 [7]: < 5 µM
EC50 [8]: < 5 µM

CO[C@H]1C[C@@H]2CC[C@@H](C)[C@@](O)(O2)C(=O)C(=O)N2CCCC[C@H]2C(=O)O[C@H]([C@H](C)C[C@@H]2CC[C@@H](OCCO)[C@H](OC)C2)CC(=O)[C@H](C)/C=C(\C)[C@@H](O)[C@@H](OC)C(=O)[C@H](C)C[C@H](C)/C=C/C=C/C=C/1C [everolimus, reference compound]
effect on MCF-7 cell proliferation [9]: inhibited MCF-7 breast cancer cell proliferation with limited cell killing as a single agent

C[C@]12CC[C@@H]3c4ccc(O)cc4C[C@@H](CCCCCCCCC[S+]([O-])CCCC(F)(F)C(F)(F)F)[C@H]3[C@@H]1CC[C@@H]2O (stereo partly shown) [fulvestrant, reference compound]
IC50 ([9]; MCF7, FUL + 0.4 μM Aileron peptide 1, MCF-7): 0.000261 µM
IC50 ([9]; MCF7, FUL alone, MCF-7): 0.000768 µM
effect on MCF-7 cell proliferation [9]: inhibited MCF-7 breast cancer cell proliferation with limited cell killing as a single agent

SP154 (LTFAEYWAQAASAA; not fully specified)
% BW Change ([2]; 30 mg/kg 3x/wk iv, Days 18-39): +5.7%
No. with ≥10% BW Loss ([2]; 30 mg/kg 3x/wk iv, Days 18-39): 0/10
No. with ≥20% BW Loss or death ([2]; 30 mg/kg 3x/wk iv, Days 18-39): 0/10
tolerability of dosing regimen ([2]; 30 mg/kg three times per week iv): well-tolerated
No. with ≥10% BW Loss ([2]; 40 mg/kg 2x/wk iv, Days 18-39): 0/10
No. with ≥20% BW Loss or death ([2]; 40 mg/kg 2x/wk iv, Days 18-39): 2/10 (2 deaths)
tolerability of dosing regimen ([2]; 40 mg/kg twice a week iv): not tolerable
mice died during treatment ([2]; 40 mg/kg twice a week iv): 2

SP752, Ac-t$r5wya$r5f4CF3ekllr-NH2 (peptide)
IC50 [10]: > 0.1 µM and < 1 µM
IC50 [11]: > 1 µM

SP753, Ac-tawy$r5nf4CF3e$r5llr-NH2 (peptide)
IC50 [10]: > 0.01 µM and < 0.1 µM
IC50 [11]: > 1 µM

SP754, Ac-tawya$r5f4CF3ek$r5lr-NH2 (peptide)
IC50 [10]: > 0.1 µM and < 1 µM
IC50 [11]: > 1 µM

SP755, Ac-tawyanf4CF3e$r5llr$r5a-NH2 (peptide)
IC50 [10]: < 0.01 µM
IC50 [11]: > 1 µM

SP756, Ac-t$s8wyanf4CF3e$r5llr-NH2 (peptide)
IC50 [10]: > 0.01 µM and < 0.1 µM
IC50 [11]: > 1 µM

SP757, Ac-tawy$s8nf4CF3ekll$r5a-NH2 (peptide)
IC50 [10]: < 0.01 µM
IC50 [11]: > 1 µM

SP758, Ac-tawya$s8f4CF3ekllr$r5a-NH2 (peptide)
IC50 [10]: > 0.01 µM and < 0.1 µM
IC50 [11]: > 1 µM
